# From patent publication US5629430A, “Trifluoromethylpyrroloindolecarboxylic acid ester and process for production thereof” (Kyorin Pharmaceutical Co., Ltd., priority 1992, dated 1997)
# Tested on: P388 mouse leukemia cells
# Test: Activity against tumor cell growth (P388, MTT, 72 h)
# Format: cell-based
# Details: P388 mouse leukemia cells, 72 h, 37° C., MTT; read-out: IC50 (50% growth inhibition concentration)
# Procedure: Using a culture medium RPMI1640 supplemented with 10% inactivated bovine fetal serum, 2 mM glutamine, 100 μ/ml kanamycin sulfate, and 5 μM 2-hydroxyethyldisulfide (This culture medium is hereinafter referred to simply as "culture medium"), P388 mouse leukemia cells were diluted to a concentration of 1.5×10^5 cells/ml in the culture medium, and were placed in each well of 96-well multiplate in 60 μl portions. Separately, the test compound was dissolved in dimethylsulfoxide and was adequately diluted with the culture medium. The diluted solution containing test compound was added to the wells of the above plate respectively in 60 μl portions. Then the cells were incubated in a CO2 -incubator (5% CO2, 37° C.) for 72 hours.
# The surviving cell numbers were measured according to the Mosmann's method (J. Immunol. Meth., 65 55-63, 1983) as follows. A 2.5 mg/ml solution of MTT (3-[4,5-dimethylthiazol-2-yl]-2,5-diphenyltetrazolium bromide) in Dulbecco's phosphate buffer solution (PBS) was prepared and added to each of the wells by 20 μl. The cells were further incubated for 3 hours. A 150 μl portion of 0.04N hydrochloric acid-isopropanol solution was added to each of the wells, and MTT-formazane formed was allowed to dissolve by pipetting. The absorbance of the solutions was measured at 540 nm taking the no-cell-containing [solution as the background. The 50% growth inhibition concentration (ICs50) was calculated from ratio of the absorbances of the treated samples to the absorbance of the no-medicine-treated sample, and from the concentration of the test compound.
row,Structure (SMILES),IC50
1,"COC(=O)c1c(C(F)(F)F)[nH]c2c(O)cc3c(c12)C(CCl)CN3C(=O)c1cc2cc(NC(=O)c3cc4ccccc4[nH]3)ccc2[nH]1 (stereo not drawn) [Example 9, Methyl 1-chloromethyl-5-hydroxy-3-[5-[(1H-indol-2-ylcarbonyl)amino]-1H-indol-2-ylcarbonyl]-7-trifluoromethyl-1,2,3,6-tetrahydropyrrolo[3,2-e]indole-8-carboxylate]",0.76 ng/mL
2,"COC(=O)c1c(C(F)(F)F)[nH]c2c1C13CC1CN(C(=O)c1cc4cc(NC(=O)c5cc6cccc(OC)c6o5)ccc4[nH]1)C3=CC2=O (stereo not drawn) [Example 25, Methyl 2-[5-[(7-methoxybenzofuran-2-ylcarbonyl)amino]-1H-indol-2-ylcarbonyl]-6-trifluoromethyl-1,2,8,8a-tetrahydrocyclopropa[c]pyrrolo[3,2-e]indole-4 (5H)-one-7-carboxylate]",0.63 ng/mL
3,"COC(=O)c1c(C(F)(F)F)[nH]c2c1C13CC1CN(C(=O)c1cc4cc(NC(=O)c5ccc6ccccc6c5)ccc4[nH]1)C3=CC2=O (stereo not drawn) [Example 29, Methyl 3-[5-[(naphthalene-3-ylcarbonyl)amino]1H-indol-2-ylcarbonyl]-6-trifluoromethyl-1,2,8,8a-tetrahydrocyclopropa[c]pyrrolo[3,2-e]indol-4 (5H)-one-7-carboxylate]",1.2 ng/mL
4,"COC(=O)c1c(C(F)(F)F)[nH]c2c1C13CC1CN(C(=O)c1cc4cc(NC(=O)c5cnc6ccccc6c5)ccc4[nH]1)C3=CC2=O (stereo not drawn) [Example 30, Methyl 3-[5-[(quinoline-3-ylcarbonyl)amino]-1H-indol-2-ylcarbonyl]-6-trifluoromethyl-1,2,8,8a-tetrahydrocyclopropa[c]pyrrolo[3,2-e]indol-4 (5H)-one-7-carboxylate]",0.22 ng/mL
5,"COC(=O)c1c(C(F)(F)F)[nH]c2c1C13CC1CN(C(=O)c1cc4cc(NC(=O)c5cc6c(cn5)[nH]c5ccccc56)ccc4[nH]1)C3=CC2=O (stereo not drawn) [Example 33, Methyl 2-[5-[(9H-pyrido[3,4-b]indol-3-ylcarbonyl)amino]-1H-indol-2-ylcarbonyl]-6-trifluoromethyl-1,2,8,8a-tetrahydrocyclopropa[c]pyrrolo[3,2-e]indol-4 (5H)-one-7-carboxylate]",0.17 ng/mL
6,"COC(=O)c1c(C(F)(F)F)[nH]c2c(O)cc3c(c12)C(CBr)CN3C(=O)c1cc2cc(NC(=O)c3cc4cc(OC)c(OC)c(OC)c4[nH]3)ccc2[nH]1 (stereo not drawn) [Example 39, Methyl 1-bromomethyl-5-hydroxy-7-trifluoromethyl-3-[5[(5,6,7-trimethoxy1H-indol-2-ylcarbonyl)amino]-1H-indol-2-ylcarbonyl]-1,2,3,6-tetrahydropyrrolo[3,2-e]indole-8-carboxylate]",0.2 ng/mL
7,"COC(=O)c1c(C(F)(F)F)[nH]c2c(O)cc3c(c12)C(CBr)CN3C(=O)c1cc2cc(NC(=O)c3cc4c(OC)c(OC)c(OC)cc4[nH]3)ccc2[nH]1 (stereo not drawn) [Example 40, Methyl 1-bromomethyl-5-hydroxy-7-trifluoromethyl-3-[5-[(4,5,6-trimethoxy1H-indol-2-ylcarbonyl)amino]-1H-indol-2-ylcarbonyl]-1,2,3,6-tetrahydropyrrolo[3,2-e]indole-8-carboxylate]",0.08 ng/mL
8,"COC(=O)c1c(C(F)(F)F)[nH]c2c(O)cc3c(c12)C(CBr)CN3C(=O)c1cc2cc(NC(=O)c3ccc4ccccc4c3)ccc2[nH]1 (stereo not drawn) [Example 41, Methyl 1-bromomethyl-5-hydroxy-3-[5-[(naphthalene-3-ylcarbonyl)amino]-1H-indol-2-ylcarbonyl]-7-trifluoromethyl-1,2,3,6-tetrahydropyrrolo[3,2-e]indole-8-carboxylate]",1.6 ng/mL
9,"COC(=O)c1c(C(F)(F)F)[nH]c2c(O)cc3c(c12)C(CBr)CN3C(=O)c1cc2cc(NC(=O)c3cnc4ccccc4c3)ccc2[nH]1 (stereo not drawn) [Example 42, Methyl 1-bromomethyl-5-hydroxy-3-[5-[(quinoline-3-ylcarbonyl)amino]-1H-indol-2-ylcarbonyl]-7-trifluoromethyl-1,2,3,6-tetrahydropyrrolo[3,2-e]indole-8-carboxylate]",0.13 ng/mL
